Measurements taken from ChEMBL document CHEMBL5465560, “Selectivity Literature for EUbOPEN Chemogenomic Library” (2024).
Changes are numbered by the printed parent chain.

Legend:
[1] = target: T1, Serine/threonine-protein kinase Nek1 (Homo sapiens) (UniProt Q96PY6); assay: Selectivity interaction (KinomeScan (DiscoverX)) EUB0000229b NEK1; settings: at 10 µM
T1 sequence (whole entry): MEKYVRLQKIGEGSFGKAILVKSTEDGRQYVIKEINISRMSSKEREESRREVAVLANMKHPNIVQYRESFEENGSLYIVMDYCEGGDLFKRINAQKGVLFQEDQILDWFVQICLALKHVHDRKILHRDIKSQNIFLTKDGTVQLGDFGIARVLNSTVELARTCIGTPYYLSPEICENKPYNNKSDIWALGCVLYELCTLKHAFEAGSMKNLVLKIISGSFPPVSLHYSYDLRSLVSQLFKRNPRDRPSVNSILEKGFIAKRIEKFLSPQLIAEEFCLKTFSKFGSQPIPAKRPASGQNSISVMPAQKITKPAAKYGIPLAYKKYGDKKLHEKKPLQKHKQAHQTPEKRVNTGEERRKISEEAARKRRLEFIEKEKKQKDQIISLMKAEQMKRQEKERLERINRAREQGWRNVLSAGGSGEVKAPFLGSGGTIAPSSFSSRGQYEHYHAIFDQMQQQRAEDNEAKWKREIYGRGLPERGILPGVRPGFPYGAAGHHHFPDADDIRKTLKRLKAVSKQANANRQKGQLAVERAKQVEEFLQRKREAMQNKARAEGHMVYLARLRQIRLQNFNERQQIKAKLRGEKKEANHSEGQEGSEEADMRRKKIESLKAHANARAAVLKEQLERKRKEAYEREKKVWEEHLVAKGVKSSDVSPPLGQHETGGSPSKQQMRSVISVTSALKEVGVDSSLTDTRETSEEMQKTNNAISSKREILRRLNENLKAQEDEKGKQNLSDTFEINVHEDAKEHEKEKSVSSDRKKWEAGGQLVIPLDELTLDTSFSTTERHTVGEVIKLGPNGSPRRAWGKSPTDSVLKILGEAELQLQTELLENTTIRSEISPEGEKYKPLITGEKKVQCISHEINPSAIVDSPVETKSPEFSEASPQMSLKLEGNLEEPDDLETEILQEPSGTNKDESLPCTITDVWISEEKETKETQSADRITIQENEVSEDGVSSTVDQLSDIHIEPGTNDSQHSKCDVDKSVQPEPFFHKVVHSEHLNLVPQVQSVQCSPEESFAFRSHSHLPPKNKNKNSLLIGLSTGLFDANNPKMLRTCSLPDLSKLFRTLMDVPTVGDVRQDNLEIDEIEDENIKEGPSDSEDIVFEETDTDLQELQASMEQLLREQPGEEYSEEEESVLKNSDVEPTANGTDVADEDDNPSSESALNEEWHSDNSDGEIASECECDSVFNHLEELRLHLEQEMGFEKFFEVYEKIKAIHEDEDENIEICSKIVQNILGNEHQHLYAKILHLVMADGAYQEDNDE

[2] = test system: T2, Discoidin domain-containing receptor 2 (Homo sapiens), Q16832 [N456S]; assay: (§1) Selectivity interaction (ProQinase) EUB0000171b DDR2
T2 sequence (whole entry): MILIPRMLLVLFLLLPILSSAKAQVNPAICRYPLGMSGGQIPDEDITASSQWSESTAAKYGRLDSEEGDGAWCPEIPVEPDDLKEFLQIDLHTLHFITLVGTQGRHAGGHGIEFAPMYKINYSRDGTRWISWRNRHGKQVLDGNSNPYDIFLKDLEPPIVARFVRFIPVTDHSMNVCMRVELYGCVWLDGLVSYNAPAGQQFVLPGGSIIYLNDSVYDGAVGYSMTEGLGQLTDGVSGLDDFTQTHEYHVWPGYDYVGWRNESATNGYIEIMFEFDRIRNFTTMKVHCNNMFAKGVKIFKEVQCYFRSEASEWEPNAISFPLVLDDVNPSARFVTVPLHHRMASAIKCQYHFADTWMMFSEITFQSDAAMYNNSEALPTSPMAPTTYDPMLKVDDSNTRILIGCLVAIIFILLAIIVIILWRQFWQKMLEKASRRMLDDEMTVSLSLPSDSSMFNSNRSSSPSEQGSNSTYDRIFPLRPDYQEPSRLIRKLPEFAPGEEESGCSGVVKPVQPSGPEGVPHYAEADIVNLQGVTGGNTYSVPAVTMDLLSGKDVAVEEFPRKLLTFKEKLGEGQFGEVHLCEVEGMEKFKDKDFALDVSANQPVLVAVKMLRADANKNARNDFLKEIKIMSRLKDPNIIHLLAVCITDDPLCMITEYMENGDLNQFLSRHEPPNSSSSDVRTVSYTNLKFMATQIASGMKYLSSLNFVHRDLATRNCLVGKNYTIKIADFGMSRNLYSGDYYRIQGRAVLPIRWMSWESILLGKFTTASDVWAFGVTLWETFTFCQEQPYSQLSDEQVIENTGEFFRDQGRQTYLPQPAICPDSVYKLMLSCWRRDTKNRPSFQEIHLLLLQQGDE

[3] = target: T3, Discoidin domain-containing receptor 2 (Homo sapiens) (UniProt Q16832); assay: as §1
T3 sequence (whole entry): T2 sequence (whole entry) with S456N

% of control ([2]; at 1 µM)	% of control ([2]; at 5 µM)	% of control ([3]; at 1 µM)	% of control ([3]; at 5 µM)	Structure (SMILES)	% binding [1]
–	–	–	–	COc1cc(N(C)c2ccnc3ccc(C(F)(F)F)cc23)cc(OC)c1OC	78%
88%	67%	90%	76%	C=CC(=O)Nc1cccc(C(=O)Nc2ccc(Nc3cc(-c4[nH]c(SC)nc4C)ccn3)cc2)c1	–
